In assay [1] the target is T1, glucocorticoid receptor (Homo sapiens, UniProt P04150).
T1 construct: containing 50-200 ug of A549 cell extract and 1.86 nM [^3H]-dexamethasone; host or cells: A549 human lung epithelial cells (sonicated cell extract)
T1 sequence (P04150 1-777): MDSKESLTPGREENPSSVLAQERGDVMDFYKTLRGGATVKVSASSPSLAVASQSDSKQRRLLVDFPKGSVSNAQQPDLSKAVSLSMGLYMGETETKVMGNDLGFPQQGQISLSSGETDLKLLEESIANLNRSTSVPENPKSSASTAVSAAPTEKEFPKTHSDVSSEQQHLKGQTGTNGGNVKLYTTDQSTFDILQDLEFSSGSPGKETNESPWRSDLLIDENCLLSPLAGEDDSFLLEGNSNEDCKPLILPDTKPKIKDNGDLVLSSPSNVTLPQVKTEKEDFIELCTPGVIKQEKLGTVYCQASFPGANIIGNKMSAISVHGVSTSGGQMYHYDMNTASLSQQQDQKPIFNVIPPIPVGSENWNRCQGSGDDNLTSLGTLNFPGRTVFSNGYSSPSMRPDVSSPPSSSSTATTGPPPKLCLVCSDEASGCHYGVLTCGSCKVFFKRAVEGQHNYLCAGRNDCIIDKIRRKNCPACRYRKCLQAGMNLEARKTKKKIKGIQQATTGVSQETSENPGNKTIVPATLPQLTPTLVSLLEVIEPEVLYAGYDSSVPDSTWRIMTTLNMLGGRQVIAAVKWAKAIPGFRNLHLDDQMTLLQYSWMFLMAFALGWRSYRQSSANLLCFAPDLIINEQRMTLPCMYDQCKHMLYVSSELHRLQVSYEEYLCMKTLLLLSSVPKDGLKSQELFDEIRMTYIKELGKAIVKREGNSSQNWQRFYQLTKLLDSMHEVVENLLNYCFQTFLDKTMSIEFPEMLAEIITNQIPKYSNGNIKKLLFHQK
The assay can be described thus: Glucocorticoid Receptor Binding Assay ([3H]-dexamethasone, A549 cell extract). Particulars: [3H]-dexamethasone binding, read-out: GR Ki. In outline:
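A549 cell extract (50–200 ug) incubated with 1.86 nM [3H]-dexamethasone and test compound for 16 h at 4 °C in Tris-HCl pH 7.2 buffer with glycerol and molybdate. Unbound radioligand removed by dextran-coated charcoal, then supernatant bound counts measured by scintillation.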

In assay [2] the target is T2, human MR (Homo sapiens, UniProt P08235).
T2 construct: The full length human MR gene is cloned from a human kidney or human brain cDNA library; His tag from the pAcHLT vector (own knowledge); made in house; host or cells: Sf9 insect cells (baculovirus, pAcHLT transfer vector)
T2 sequence (P08235 1-984): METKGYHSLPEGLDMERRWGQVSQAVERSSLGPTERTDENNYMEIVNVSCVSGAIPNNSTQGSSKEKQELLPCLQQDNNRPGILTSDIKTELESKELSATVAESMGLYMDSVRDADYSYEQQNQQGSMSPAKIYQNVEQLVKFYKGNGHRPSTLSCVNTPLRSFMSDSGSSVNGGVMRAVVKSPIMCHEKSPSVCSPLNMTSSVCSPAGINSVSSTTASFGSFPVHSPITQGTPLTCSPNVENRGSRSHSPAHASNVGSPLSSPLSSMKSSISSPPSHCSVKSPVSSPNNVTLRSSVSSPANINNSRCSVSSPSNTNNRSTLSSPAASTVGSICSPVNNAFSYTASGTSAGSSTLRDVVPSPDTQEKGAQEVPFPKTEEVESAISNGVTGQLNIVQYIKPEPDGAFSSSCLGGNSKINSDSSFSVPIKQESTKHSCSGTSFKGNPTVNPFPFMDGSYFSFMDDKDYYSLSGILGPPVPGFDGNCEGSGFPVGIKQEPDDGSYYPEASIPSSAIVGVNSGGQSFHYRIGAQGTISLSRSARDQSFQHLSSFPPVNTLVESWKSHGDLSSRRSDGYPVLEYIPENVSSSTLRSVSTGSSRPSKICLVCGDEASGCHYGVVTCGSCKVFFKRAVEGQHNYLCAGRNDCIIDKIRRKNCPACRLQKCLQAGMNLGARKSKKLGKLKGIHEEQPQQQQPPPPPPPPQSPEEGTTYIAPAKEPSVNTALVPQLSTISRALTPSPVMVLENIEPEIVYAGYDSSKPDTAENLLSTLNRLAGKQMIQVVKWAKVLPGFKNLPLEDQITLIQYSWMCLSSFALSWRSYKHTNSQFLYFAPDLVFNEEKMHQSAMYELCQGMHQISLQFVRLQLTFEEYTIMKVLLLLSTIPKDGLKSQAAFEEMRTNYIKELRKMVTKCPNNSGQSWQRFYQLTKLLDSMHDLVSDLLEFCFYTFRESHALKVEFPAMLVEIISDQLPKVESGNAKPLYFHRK
The assay is described as follows: Mineralocorticoid Receptor Binding Assay ([3H]-aldosterone). To be noted: [3H]-aldosterone binding, human MR expressed in Sf9 cells; read-out: MR Ki. In outline:
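Lysate supernatant of Sf9 cells expressing full-length human MR (20-25 μg protein) was incubated with 0.5 nM [3H]-aldosterone and test compound in molybdate/Tris/phosphate/glycerol buffer, pH 7.5, ~16 h at 4 °C. Bound ligand was filtered and counted by scintillation; IC50 is the concentration halving [3H]-aldosterone binding.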

The record followed here is patent publication US20060063759A1, “Tricyclic steroid hormone nuclear receptor modulators” (priority 2002, published 2006).

For orientation: Ki means a measure of affinity in units of concentration, obtained from inhibition or displacement. For the compound `COc1ccc2c(c1)CCc1ccccc1C2=Cc1cccc(NS(C)(=O)=O)c1` [Example 161, N-[3-(2-Methoxy-10,11-dihydro-dibenzo[a,d]cyclohepten-5-ylidenemethyl)-phenyl]-methanesulfonamide], the Ki in assay [1] and in assay [2] was less than 500 nM each time.

With `COc1cc2c(cc1OC)C(=Cc1cccc(NS(C)(=O)=O)c1)c1ccccc1CC2` [Example 170(a), N-[3-(2,3-Dimethoxy-10,11-dihydro-dibenzo[a,d]cyclohepten-5-ylidenemethyl)-phenyl]-methanesulfonamide], the Ki was less than 1000 nM in assay [1] and less than 500 nM in assay [2].

Regarding `COc1cc2c(cc1OC)C(=Cc1cccc(NS(C)(=O)=O)c1)c1ccccc1CC2` [Example 170(b), N-[3-(2,3-Dimethoxy-10,11-dihydro-dibenzo[a,d]cyclohepten-5-ylidenemethyl)-phenyl]-methanesulfonamide], the Ki in assay [1] and in assay [2] was less than 500 nM in each case.

With `FC(F)(F)c1ccccc1C=C1c2ccccc2CCc2cc(Cl)ccc21` [Example 174, 2-Chloro-5-(2-trifluoromethyl-benzylidene)-10,11-dihydro-5H-dibenzo[a,d]cycloheptene], the Ki in assay [1] is less than 1000 nM; in assay [2], less than 500 nM.

In the case of `Cc1ccccc1C=C1c2ccccc2CCc2cc(Cl)ccc21` [Example 175, 2-Chloro-5-(2-methyl-benzylidene)-10,11-dihydro-5H-dibenzo[a,d]cycloheptene], the Ki in assay [1] is less than 10000 nM; in assay [2], less than 500 nM.

Regarding `Cc1cccc(C=C2c3ccccc3CCc3cc(Cl)ccc32)c1` [Example 177, 2-Chloro-5-(3-methyl-benzylidene)-10,11-dihydro-5H-dibenzo[a,d]cycloheptene], the results for the Ki in assay [1] and in assay [2] were less than 1000 nM and less than 500 nM, respectively.

As for `Oc1ccc(C=C2c3ccccc3CCc3cc(Cl)ccc32)cc1` [Example 180, 4-(2-Chloro-10,11-dihydro-dibenzo[a,d]cyclohepten-5-ylidenemethyl)-phenol], the values for the Ki in assay [1] and in assay [2] were less than 1000 nM and less than 500 nM, respectively.

For `Oc1cccc(C=C2c3ccc(Cl)cc3CCc3cc(Cl)ccc32)c1` [Example 183, 3-(2,8-Dichloro-10,11-dihydro-dibenzo[a,d]cyclohepten-5-ylidenemethyl)-phenol], the Ki in assay [1] and in assay [2] was less than 500 nM in each case.

As for `Oc1cccc(CC2c3ccccc3CCc3c(F)cccc32)c1` (stereo not shown) [Example 186, 3-(1-Fluoro-10,11-dihydro-5H-dibenzo[a,d]cyclohepten-5-ylmethyl)-phenol], the Ki in assay [1] and in assay [2] was less than 500 nM throughout.

With `CS(=O)(=O)Nc1cccc(CC2c3ccccc3CCc3c(F)cccc32)c1` (stereo not shown) [Example 187, N-[3-(1-Fluoro-10,11-dihydro-5H-dibenzo[a,d]cyclohepten-5-ylmethyl)-phenyl]-methanesulfonamide], the inhibition constant (Ki) in assay [1] and in assay [2] was less than 500 nM in each case.

As to `CS(=O)(=O)Nc1cccc(CC2c3ccccc3CCc3ccc(Cl)cc32)c1` (stereo not shown) [Example 189, N-[3-(3-Chloro-10,11-dihydro-5H-dibenzo[a,d]cyclohepten-5-ylmethyl)-phenyl]-methanesulfonamide], the inhibitory constant (Ki) in assay [1] and in assay [2] was less than 500 nM each time.

In the case of `CS(=O)(=O)Nc1cccc(C=C2c3ccc(O)cc3CCc3cc(O)ccc32)c1` [Example 192, N-[3-(2,8-Dihydroxy-10,11-dihydro-dibenzo[a,d]cyclohepten-5-ylidenemethyl)-phenyl]-methanesulfonamide], the Ki in assay [1] and in assay [2] was less than 500 nM throughout.

On to `COc1ccc2c(c1)CCc1cc(OC)ccc1C2=Cc1cccc(O)c1` [Example 193, 3-(2,8-Dimethoxy-10,11-dihydro-dibenzo[a,d]cyclohepten-5-ylidenemethyl)-phenol], for which the Ki in assay [1] and in assay [2] was less than 500 nM each time.

Take `Oc1cccc(C=C2c3ccc(O)cc3CCc3cc(O)ccc32)c1` [Example 194, 5-(3-Hydroxy-benzylidene)-10,11-dihydro-5H-dibenzo[a,d]cycloheptene-2,8-diol]: the Ki in assay [1] and in assay [2] was less than 500 nM throughout.

Regarding `CS(=O)(=O)Nc1cccc(/C=C2\c3ccccc3CCc3cc(OCCN4CCOCC4)ccc32)c1` [Example 196, N-{3-[2-(2-Morpholin-4-yl-ethoxy)-10,11-dihydro-dibenzo[a,d]cyclohepten-5-ylidenemethyl]-phenyl}-methanesulfonamide], the Ki in assay [1] and in assay [2] was less than 500 nM each time.

Consider `CS(=O)(=O)Nc1cccc(C=C2c3cccc(F)c3CCc3c(F)cccc32)c1` [Example 201, N-[3-(1,9-Difluoro-10,11-dihydro-dibenzo[a,d]cyclohepten-5-ylidenemethyl)-phenyl]-methanesulfonamide], for which the Ki in assay [1] and in assay [2] was less than 500 nM in each case.

With `CS(=O)(=O)Nc1cccc(C=C2c3ccccc3CCc3c(Cl)cccc32)c1` [Example 205(b), N-[3-(1-Chloro-10,11-dihydro-dibenzo[a,d]cyclohepten-5-ylidenemethyl)-phenyl]-methanesulfonamide], the Ki in assay [1] and in assay [2] was less than 500 nM in each case.

As for `CCS(=O)(=O)Nc1cccc(C=C2c3ccccc3CCc3c(Cl)cccc32)c1` [Example 208(b), Ethanesulfonic acid [3-(1-chloro-10,11-dihydro-dibenzo[a,d]cyclohepten-5-ylidenemethyl)-phenyl]-amide], the Ki in assay [1] and in assay [2] was less than 500 nM in each case.

`O=c1[nH]c2cc(C=C3c4ccccc4CCc4ccccc43)ccc2o1` [Example 216, 5-(10,11-Dihydro-dibenzo[a,d]cyclohepten-5-ylidenemethyl)-3H-benzooxazol-2-one]: the Ki in assay [1] and in assay [2] was less than 500 nM each time.

Consider `C(=C1c2ccccc2CCc2ccccc21)c1ccc2ocnc2c1` [Example 217, 5-(10,11-Dihydro-dibenzo[a,d]cyclohepten-5-ylidenemethyl)-benzooxazole], for which the inhibition constant (Ki) in assay [1] is less than 10000 nM; in assay [2] it was less than 500 nM.

As to `Cc1nc2cc(C=C3c4ccccc4CCc4ccccc43)ccc2o1` [Example 218, 5-(10,11-Dihydro-dibenzo[a,d]cyclohepten-5-ylidenemethyl)-2-methyl-benzooxazole], the Ki is less than 1000 nM in assay [1] and less than 500 nM in assay [2].

Consider `C(=C1c2ccccc2CCc2ccccc21)c1ccc2cc[nH]c2c1` [Example 219, 6-(10,11-Dihydro-dibenzo[a,d]cyclohepten-5-ylidenemethyl)-1H-indole], for which the results for the Ki in assay [1] and in assay [2] were less than 1000 nM and less than 500 nM, respectively.

Consider `C(=C1c2ccccc2CCc2ccccc21)c1cccc2[nH]ccc12` [Example 220, 4-(10,11-Dihydro-dibenzo[a,d]cyclohepten-5-ylidenemethyl)-1H-indole], for which the Ki was less than 10000 nM in assay [1] and less than 500 nM in assay [2].
